In EP4786467A1, “QUINOLINONE COMPOUND, PREPARATION METHOD THEREFOR AND USE THEREOF” (Vigonvita Life Sciences Co., Ltd., priority 2023, dated 2025):

Tests used:
human SERT = target: T1, human SERT (Homo sapiens, UniProt P31645); experiment: 5-HT Transporter Inhibitory Activity Assay (Neurotransmitter transporter uptake assay kit); type: cell-based; settings: HEK-293 cells expressing human SERT
T1 construct: expressed in transfected cells; host or cells: HEK-293 (HEK-hSERT cells)
Procedure: The inhibitory effect of the compounds on the 5-HT transporter in HEK-293 cells expressing human SERT was tested using the Neurotransmitter transporter uptake assay kit (Molecular Devices product). The test was performed according to the kit instructions, using citalopram as a positive control. The specific procedure was as follows: a) HEK-hSERT cells were seeded at 20,000 cells/well in a 384-well plate and then incubated overnight at 37°C in an incubator. b) The following day, the compounds (test compounds and positive control) were diluted using DMSO from 20 mM DMSO solution to the working concentration. Each test compound and citalopram were transferred to a 384-well plate using a detection buffer containing 0.1% BSA. The initial test concentration of citalopram was 1 µM, diluted 3X. The initial test concentration of the test compounds was 10 µM, diluted 4X, with each concentration repeated twice. c) The cell culture 384-well plate was taken out from the incubator, the culture medium was aspirated from the wells, and 25 µL of the test compound solution was added per well. The cells were incubated at 37°C for 30 min. After incubation, 25 µL of a dye solution was added to each well and the cells were incubated at 37°C for 30 min. d) the fluorescence values were read on a Flexstation 3 and the data were analyzed using Graphpad Prism.

[1] = target: T2, recombinant human 5-HT1A receptor (Homo sapiens, UniProt P08908); experiment: 5-HT1A Receptor Agonist Activity Assay (LANCE cAMP, inhibition of cAMP production); type: cell-based; settings: CHO-K1 cells expressing the recombinant human 5-HT1A receptor, read-out: 5-HT1A agonistic activity (EC50)
T2 construct: expressed in transfected cells
T2 sequence (P08908 1-422): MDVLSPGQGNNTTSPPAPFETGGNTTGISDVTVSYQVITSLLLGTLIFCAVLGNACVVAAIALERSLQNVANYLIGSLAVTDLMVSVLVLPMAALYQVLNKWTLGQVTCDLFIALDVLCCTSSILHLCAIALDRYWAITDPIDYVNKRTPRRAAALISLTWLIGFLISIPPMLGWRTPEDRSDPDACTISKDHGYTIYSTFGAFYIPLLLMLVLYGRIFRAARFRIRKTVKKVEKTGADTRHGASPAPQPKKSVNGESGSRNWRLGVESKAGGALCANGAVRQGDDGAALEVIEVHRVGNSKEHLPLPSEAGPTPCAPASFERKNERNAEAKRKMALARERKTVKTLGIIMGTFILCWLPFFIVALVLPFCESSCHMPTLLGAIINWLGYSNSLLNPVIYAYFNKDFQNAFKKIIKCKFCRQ
Procedure: The agonistic effect of the compounds on the 5-HT1A receptor was evaluated by testing their inhibitory effect on cAMP production in CHO-K1 cells. 8-OH-DPAT was used as a positive control. The specific procedures were as follows: a) The compounds (test compounds and positive control) were prepared to a stock concentration of 10 mM using DMSO, and Forskolin was prepared to a stock concentration of 10 mM. The initial test concentration of 8-OH-DPAT was 1 µM, diluted 3X. The initial test concentration of the test compounds was 0.1 µM, diluted 3X, and each concentration was repeated twice. 100 nL of the compounds and 10 nL of Forskolin were transferred to the test plate using an Echo, with a final DMSO concentration <1%. b) The stable 5-HT1A cell line was taken out from the incubator to observe the cell status. When the cell density reached 80%-90%, the culture medium was discarded and the cells were washed with 5 mL of DPBS. After discarding DPBS, 2 mL of trypsin was added, and the cells were incubated at 37 °C for 2-5 min. After adding 10 mL of complete culture medium, the cells were collected, which was centrifuged at 1000 rpm for 4 min, and the supernatant was discarded. […]

[2] = Mouse Pharmacokinetic Experiment (plasma and brain); type: in vivo, Male ICR mice; settings: for bioavailability: mouse, iv 0.3 mg/kg, po 1 mg/kg; for Cmax / AUC(0-t): oral (po) dose 1 mg/kg
Procedure: Animal: Male ICR mice. Animals were randomly assigned to the treatment group and fasted for 12 hours before administration.
Drug to be tested: The compounds were dissolved in solvent (0.5% CMC-Na). The intravenous (iv) dose was 0.3 mg/kg, with an administration volume of 5 ml/kg; the oral (po) dose was 1 mg/kg, with an administration volume of 10 mL/kg body weight.
Sample Collection and Bioanalysis: After administration, blood was collected from the orbital sinus of mice at 0.083, 0.25, 0.5, 1, 2, 4, 6, 8, and 24 hours (n=3 at each time point) and placed in EP tubes containing heparin sodium. Mice were euthanized immediately via vertebral dislocation after blood collection, and their brains were harvested at the corresponding time points. All samples were collected immediately, rapidly frozen, and stored at -70°C for later use.
Plasma samples were obtained by whole blood centrifugation. 10 µL of plasma was then mixed with 190 µL of internal standard solution (20 ng/mL metoprazor in acetonitrile containing 0.1% formic acid). After mixing, the mixture was centrifuged at 13000 rpm for 10 min. For each sample, 120 µL of the supernatant was collected, and 0.5-10 µL (depending on the sensitivity of the compound) was then taken for drug analysis using an appropriate liquid chromatography-tandem mass spectrometry (LC-MS/MS) method. Standards for each analyte were used for calibration and identification.
The brain tissue and extract were homogenized at a brain tissue:extract (50% acetonitrile-water) ratio = 1 (g): 8 (ml) using 5 3mm-magnetic beads in an OMNI Bead Ruptor 24 Elite homogenizer at 3.2 m/s for 2 min. The mixture was centrifuged at 4°C, 3000g for 3 min. 50 µL of supernatant was collected and added with 200 µL of internal standard solution (20 ng/mL dissolved in 80% acetonitrile-water). After mixing well, the mixture was centrifuged at 13000 rpm for 10 min. 120 µL of supernatant was collected for each sample. Then, 0.5-10 µL of the supernatant (depending on the sensitivity of the compound) was taken and analyzed using an appropriate LC-MS/MS method. Standards for each analyte were used for calibration and identification.
Data Analysis: Drug concentrations below the limit of quantitation (LLOQ) were recorded as zero. Pharmacokinetic data analysis was performed in PK Solver using non-compartmental, bolus intravenous injection, or extravascular administration analysis model. Data points below LLOQ were excluded from the analysis to improve the validity of t1/2 calculation.

[3] = Rat Pharmacokinetic Experiment; type: in vivo, male SD rats; settings: for bioavailability: rat, iv 1 mg/kg, po 3 mg/kg; for AUC(0-t) / Cmax: rat plasma, oral (po) dose 3 mg/kg
Procedure: The compound of Example 2 was used in a pharmacokinetic experiment in rats (non-fasted male SD rats). The compound of the present invention was dissolved in a solvent (0.5% CMC-Na). The intravenous (iv) dose was 1 mg/kg, with an administration volume of 5 ml/kg; the oral (po) dose was 3 mg/kg, with an administration volume of 10 mL/kg body weight. Approximately 0.3 mL of blood samples were collected from the jugular vein of rats at the following time points: 0.083, 0.25, 0.5, 1, 2, 4, 6, 8, and 24 h (n=3 at each time point). The collected blood was stored under ice-cooling conditions. Plasma was rapidly separated by centrifugation, and a precipitant was added. The concentration of the test compound was quantified using LC-MS.

T1 sequence (P31645 whole entry): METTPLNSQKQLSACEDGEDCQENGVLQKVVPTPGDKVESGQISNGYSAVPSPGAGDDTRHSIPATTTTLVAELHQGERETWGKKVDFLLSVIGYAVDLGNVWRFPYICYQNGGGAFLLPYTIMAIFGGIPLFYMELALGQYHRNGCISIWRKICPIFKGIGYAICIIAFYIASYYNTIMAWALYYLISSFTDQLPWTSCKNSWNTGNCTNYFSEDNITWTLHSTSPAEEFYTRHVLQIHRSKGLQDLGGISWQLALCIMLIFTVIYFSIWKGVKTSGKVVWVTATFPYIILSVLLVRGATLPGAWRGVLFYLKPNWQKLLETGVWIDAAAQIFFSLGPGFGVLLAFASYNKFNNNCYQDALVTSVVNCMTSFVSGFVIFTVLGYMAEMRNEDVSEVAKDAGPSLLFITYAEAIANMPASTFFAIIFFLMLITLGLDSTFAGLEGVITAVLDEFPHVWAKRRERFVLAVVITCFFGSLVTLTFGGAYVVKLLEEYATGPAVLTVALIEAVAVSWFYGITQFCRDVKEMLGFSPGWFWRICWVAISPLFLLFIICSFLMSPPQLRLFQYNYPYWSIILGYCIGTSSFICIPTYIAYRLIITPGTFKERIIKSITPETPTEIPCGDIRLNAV

SMILES	IC50 (human SERT) [nM]	EC50 [1] [nM]	further results
[2H]C1([2H])C(=O)Nc2cc(CCN3CCN(c4cc(F)cc5occc45)CC3)ccc2C1([2H])[2H] [Example 43, 7-(2-(4-(6-fluorobenzofuran-4-yl)piperazin-1-yl)ethyl)-3,4-dihydroquinolin-2(1H)-one-3,3,4,4-d4]	7.4		
[2H]C1([2H])CC(=O)Nc2cc(CCN3CCN(c4cc(F)cc5occc45)CC3)ccc21 [Example 41, 7-(2-(4-(6-fluorobenzofuran-4-yl)piperazin-1-yl)ethyl)-3,4-dihydroquinolin-2(1H)-one-4,4-d2]		0.7	
O=C1CCc2ccc(CCN3CCN(c4cc(F)cc5sccc45)CC3)cc2N1 [Reference compound, 7-(2-(4-(6-fluorobenzo[b]thiophene-4-yl)piperazin-1-yl)ethyl)-3,4-dihydroquinolin-2(1H)-one, reference compound]	15	1	bioavailability ([2]; male, ICR, plasma): 50%; Cmax ([2]; male, ICR, mouse brain tissue): 254 ng/g; AUC(0-t) ([2]; male, ICR, mouse plasma): 468 ng·h/mL; Cmax ([2]; male, ICR, mouse plasma): 27.5 ng/mL; bioavailability ([3]; male, SD, plasma): 43%; AUC(0-t) ([3]; male, SD): 1560 ng·h/mL; Cmax ([3]; male, SD): 280 ng/mL
O=C1CCc2ccc(CCN3CCN(c4cc(F)cc5c4OCO5)CC3)cc2N1 [Example 39, 7-(2-(4-(6-fluorobenzo[d][1,3]dioxol-4-yl)piperazin-1-yl)ethyl)-3,4-dihydroquinolin-2(1H)-one]	10.6		
O=C1CCc2ccc(CCN3CCN(c4cc(F)cc5ccsc45)CC3)cc2N1 [Example 15, 7-(2-(4-(5-fluorobenzo[b]thiophene-7-yl)piperazin-1-yl)ethyl)-3,4-dihydroquinolin-2(1H)-one]	26	0.5	
O=c1ccc2ccc(CCN3CCN(c4cc(F)cc5ccoc45)CC3)cc2[nH]1 [Example 3, 7-(2-(4-(5-fluorobenzofuran-7-yl)piperazin-1-yl)ethyl)quinolin-2(1H)-one]		1.3	
O=c1ccc2ccc(CCN3CCN(c4cc(F)cc5c4CCO5)CC3)cc2[nH]1 [Example 7, 7-(2-(4-(6-fluoro-2,3-dihydrobenzofuran-4-yl)piperazin-1-yl)ethyl)quinolin-2(1H)-one]	9		
O=C1CCc2ccc(CCN3CCN(c4cc(F)cc5c4OCC5)CC3)cc2N1 [Example 5, 7-(2-(4-(5-fluoro-2,3-dihydrobenzofuran-7-yl)piperazin-1-yl)ethyl)-3,4-dihydroquinolin-2(1H)-one]	13	1.5	
O=C1CCc2ccc(CCN3CCN(c4cc(F)cc5c4CCO5)CC3)cc2N1 [Example 2, 7-(2-(4-(6-fluoro-2,3-dihydrobenzofuran-4-yl)piperazin-1-yl)ethyl)-3,4-dihydroquinolin-2(1H)-one]			Cmax ([2]; in vivo, mouse brain tissue): 413 ng/g; AUC(0-t) ([2]; in vivo, mouse plasma): 794 ng·h/mL; Cmax ([2]; in vivo, mouse plasma): 72.8 ng/mL; bioavailability ([2]; in vivo): 77%; AUC(0-t) ([3]; in vivo): 5320 ng·h/mL; Cmax ([3]; in vivo): 815 ng/mL; bioavailability ([3]; in vivo): 100%
[2H]C1([2H])Cc2ccc(CCN3CCN(c4cc(F)cc5c4CCO5)CC3)cc2NC1=O [Example 22, 7-(2-(4-(6-fluoro-2,3-dihydrobenzofuran-4-yl)piperazin-1-yl)ethyl)-3,4-dihydroquinolin-2(1H)-one-3,3-d2]	12.4		
O=C1CCc2ccc(CCN3CCN(c4c(F)ccc5ccsc45)CC3)cc2N1 [Example 14, 7-(2-(4-(6-fluorobenzo[b]thiophene-7-yl)piperazin-1-yl)ethyl)-3,4-dihydroquinolin-2(1H)-one]		1	
O=C1CCc2ccc(CCN3CCN(c4ccc(F)c5sccc45)CC3)cc2N1 [Example 12, 7-(2-(4-(7-fluorobenzo[b]thiophene-4-yl)piperazin-1-yl)ethyl)-3,4-dihydroquinolin-2(1H)-one]		0.8	
O=C1CCc2ccc(CCN3CCN(c4cc(F)cc5occc45)CC3)cc2N1 [Example 1, 7-(2-(4-(6-fluorobenzofuran-4-yl)piperazin-1-yl)ethyl)-3,4-dihydroquinolin-2(1H)-one]	7.8	0.5	bioavailability ([2]; male, ICR, plasma): 100%; Cmax ([2]; male, ICR, mouse brain tissue): 368 ng/g; AUC(0-t) ([2]; male, ICR, mouse plasma): 1170 ng·h/mL; Cmax ([2]; male, ICR, mouse plasma): 68.4 ng/mL
O=C1CCc2ccc(CCN3CCN(c4cc(F)cc5ccoc45)CC3)cc2N1 [Example 6, 7-(2-(4-(5-fluorobenzofuran-7-yl)piperazin-1-yl)ethyl)-3,4-dihydroquinolin-2(1H)-one]	12		
O=c1ccc2ccc(CCN3CCN(c4cc(F)cc5ccsc45)CC3)cc2[nH]1 [Example 16, 7-(2-(4-(5-fluorobenzo[b]thiophene-7-yl)piperazin-1-yl)ethyl)quinolin-2(1H)-one]		0.5	
